Converted amounts (≈) assume the structure as drawn. Like-named read-outs stand apart in the source and are kept apart here.

The values that follow come from patent US20250325625A1, “ANTIMICROBIAL ASSOCIATION IN THE TREATMENT OF P. AERUGINOSA BIOFILM-ASSOCIATED INFECTIONS” (Zambon S.P.A., priority 2022, published 2025).

Experiment [1] relates to collection of respiratory pathogens. The settings on record: high NAC concentrations; Landini et al. 2016; cited from earlier work.
Experiment [2] concerns P. aeruginosa preformed biofilms. Kind of experiment: Biofilm susceptibility testing, Nunc-TSP lid system (Calgary biofilm device), preformed biofilms. Format: cell-based. The conditions noted are these: P. aeruginosa Z154, NAC 8000 mg/L. On the procedure: In the present invention the Calgary biofilm device (also referred to as Nunc-TSP lid system in the experimental part) was the method selected to test the in vitro antibiofilm activity of colistin and NAC, alone or in combination. NAC stock solutions (100 g/L) were prepared immediately before use. NAC powder (Zambon, Bresso, Italy) was dissolved in sterile distilled water, pH was adjusted at 6.5-6.8 with NaOH 10 M and the solution was filtered through a 0.22-μm membrane filter. All experiments were performed in cation-adjusted Mueller-Hinton broth (CAMHB) (Becton Dickinson, Milan, Italy), unless otherwise specified, starting from an appropriately concentrated medium to avoid broth dilution when NAC solution were used.
Colistin Colistin stock solutions (10 mg/L) were prepared immediately before use, by dissolving colistin powder (colistin sulfate, AppliChem, Darmstadt, Germany) in sterile distilled water.
Assay. Biofilm susceptibility testing was first performed using the Nunc-TSP lid system (Thermo Fisher Scientific, Waltham, MA, USA), as described previously (Harrison J J et al., Nat Protoc, 2010; 5: 1236-54). Briefly, biofilms were grown for 24 hours in CAMHB at 35° C. under static conditions. […] Median cfu per peg (cfu/peg) was then determined by plating 10 μL of appropriate dilutions of the recovery medium onto tryptic soy agar (TSA) (Oxoid) and incubating for 24 hours at 35° C. […]

In experiment [3] the test system is P. aeruginosa strains. Description: Antimicrobial susceptibility (MIC), reference broth microdilution method. The format is cell-based. Here is the method:
Fifteen clinical isolates were from CF, a MDR clinical isolate from Respiratory Tract Infection (RTI) from an Intensive Care Unit (ICU), and the reference strain P. aeruginosa PAO1 (Table 1). Identification was performed by MALDI-TOF MS (Bruker, Shimadzu). Antimicrobial susceptibility was determined using the reference broth microdilution method (CLSIMethods2018). Whole genome sequencing of clinical isolates was performed with the Illumina (San Diego, CA, USA) MiSeq platform, using a 2×150 bp paired-end approach. Raw reads were assembled using SPAdes (Bankevich et al. 2012 J Comput Biol 19(5):455-77.), and draft genomes were used to determine MLST- and O-types at the Oxford PubMLST site (https://pubmlst.org/) (Jolley et al. 2018 Wellcome Open Res 3:124) and at the Center for Genomic Epidemiology site (https://cge.cbs.dtu.dk/services/PAst-1.0/) (ThraneJCM2016), respectively. The complete genome of P. aeruginosa Z154 was obtained by combining results from Illumina with those obtained using the Oxford Nanopore Technologies (Oxford, UK) MinION platform, and de novo assembly was generated using Unicycler v0.4.4.
(In general: Dilution methods test growth across graded concentrations, often in twofold steps.)

In experiment [4] the test system is P. aeruginosa Z154 and Z34 preformed biofilms in ASM. Description: Artificial Sputum Medium (ASM) biofilm model. The format is cell-based. On the procedure: Methods. The potential antibiofilm synergism of NAC/colistin combinations was further investigated using an in vitro ASM biofilm model (Kirchner et al. 2012 Immunology 64:e3857), in order to mimic P. aeruginosa biofilm conditions within the CF mucus. […] In brief, biofilms were grown in ASM in 24-well tissue culture treated plates, for 72 hours at 35° C. under static conditions. Preformed biofilms were then exposed to NAC 8000 mg/L and colistin 64 mg/L, alone and in combination. […] After 24 hours of exposure (i.e., 35° C., static conditions), bacterial biofilms were disrupted by 30 minutes of sonication followed by manual pipetting, and the median cfu per mL (cfu/mL) was determined following the same protocol described for the Nunc-TSP lid assay. Data from this biofilm model were obtained in at least three independent experiments, with at least twelve replicates per condition per experiment.

Experiment [5] concerns P. aeruginosa strains. Kind of experiment: Antimicrobial susceptibility (MIC), reference broth microdilution method. The settings on record: isolate FC237, in the presence of NAC. The format is cell-based.
Experiment [6] relates to P. aeruginosa Z154 planktonic culture. Kind of experiment: Time-kill assays against planktonic cultures under aerobic and anaerobic conditions. Format: cell-based. The settings on record: colistin concentration higher than 0.25 mg/L, data not shown. Here is the method: Methods. Time-kill assays were performed according to CLSI guidelines (CLSI Methods M26A) with the colistin-susceptible strain Z154. Colistin 0.25 mg/L was tested alone and in combination with NAC 8000 mg/L under both aerobic and anaerobic conditions. […] The medium (CAMHB) used to obtain anoxic cultures was placed under anaerobic atmosphere by using AnaeroGen kit (Oxoid) for 3 days prior to use and during the whole experiment. The killing curves were carried out in borosilicate glass bottles with a final volume of 20 mL of CAMHB. At 0, 2, 4, 8 and 24 hours of exposure ten-fold dilutions were plated on TSA, and the number of cfu/mL was determined (detection limit, 17 cfu/mL). Data were obtained from at least four independent experiments, with two replicates per condition per experiment.

The MIC is the least concentration at which growth counts as inhibited. Take `CC(=O)N[C@@H](CS)C(=O)O` [NAC, N-acetylcysteine]: the “effect on activity of carbapenems” value in experiment [1] is on record as “compromised the activity of carbapenems”. Also, the “interference with activity of the most commonly used antibiotics” value in experiment [1] is on record as “do not interfere”. The “antibiofilm activity of NAC alone” value in experiment [2] is listed as “observed”; in experiment [4] (P. aeruginosa Z154, ASM model, NAC 8000 mg/L) it was “not observed”. The MIC in experiment [3] (Pseudomonas aeruginosa, PAO1, strain PAO1, non-mucoid, wound, read-out: MIC) is above 64 mg/mL; in experiment [3] (Pseudomonas aeruginosa, strain FC237, non-mucoid, CF, colistin-resistant, read-out: MIC) it was above 32 mg/mL; in experiment [3] (Pseudomonas aeruginosa, strain FC238, non-mucoid, CF, colistin-resistant, read-out: MIC), above 32 mg/mL; in experiment [3] (Pseudomonas aeruginosa, strain FZ99, non-mucoid, RTI ICU, colistin-resistant, read-out: MIC) it was 64 mg/mL (≈ 392 mM); in experiment [3] (Pseudomonas aeruginosa, strain M1, mucoid, CF, read-out: MIC), 16 mg/mL (≈ 98 mM); in experiment [3] (Pseudomonas aeruginosa, strain M4, mucoid, CF, read-out: MIC) it was 32 mg/mL (≈ 196 mM). Moreover, the MIC in experiment [3] (Pseudomonas aeruginosa, strain M7, mucoid, CF, read-out: MIC) is 64 mg/mL (≈ 392 mM); in experiment [3] (Pseudomonas aeruginosa, strain M13, mucoid, CF, read-out: MIC), 32 mg/mL (≈ 196 mM); in experiment [3] (Pseudomonas aeruginosa, strain M19, mucoid, CF, read-out: MIC) it was 64 mg/mL (≈ 392 mM); in experiment [3] (Pseudomonas aeruginosa, strain M25, mucoid, CF, read-out: MIC), 16 mg/mL (≈ 98 mM); in experiment [3] (Pseudomonas aeruginosa, strain M32, mucoid, CF, read-out: MIC) it was 16 mg/mL (≈ 98 mM); in experiment [3] (Pseudomonas aeruginosa, strain M42, mucoid, CF, read-out: MIC), above 32 mg/mL. The MIC in experiment [3] (Pseudomonas aeruginosa, strain Z33, non-mucoid, CF, read-out: MIC) is 16 mg/mL (≈ 98 mM); in experiment [3] (Pseudomonas aeruginosa, strain Z34, non-mucoid, CF, read-out: MIC) it was above 16 mg/mL; in experiment [3] (Pseudomonas aeruginosa, strain Z35, non-mucoid, CF, read-out: MIC) it was 16 mg/mL (≈ 98 mM); in experiment [3] (Pseudomonas aeruginosa, strain Z152, mucoid, CF, read-out: MIC), 8 mg/mL (≈ 49 mM); in experiment [3] (Pseudomonas aeruginosa, strain Z154, mucoid, CF, read-out: MIC) it was 16 mg/mL (≈ 98 mM).

On to colistin [CST], for which, in experiment [5], the “colistin MIC reduced in the presence of NAC (fraction of MIC)” value is given as 1/64. Further, in experiment [6], the “effect on planktonic cultures” value is on record as “eradication of the planktonic cultures”. In experiment [3] (colistin-susceptible strains), the “colistin MIC values” fell in the range of 0.001 to 0.002 mg/mL. The “MIC” value in experiment [3] (strain FC237, non-mucoid, CF, colistin-resistant) turned out to be 0.512 mg/mL; in experiment [3] (strain FC238, non-mucoid, CF, colistin-resistant) it was 0.008 mg/mL; in experiment [3] (strain FZ99, non-mucoid, RTI ICU, colistin-resistant) it was 0.004 mg/mL; in experiment [3] (strain M1, mucoid, CF), 0.002 mg/mL; in experiment [3] (strain M4, mucoid, CF) it was 0.002 mg/mL; in experiment [3] (strain M7, mucoid, CF) it was 0.002 mg/mL. The minimum inhibitory concentration (MIC) in experiment [3] (strain M13, mucoid, CF) amounted to 0.001 mg/mL; in experiment [3] (strain M19, mucoid, CF), 0.001 mg/mL; in experiment [3] (strain M25, mucoid, CF), 0.002 mg/mL; in experiment [3] (strain M32, mucoid, CF), 0.002 mg/mL; in experiment [3] (strain M42, mucoid, CF), 0.002 mg/mL; in experiment [3] (strain PAO1, non-mucoid, wound), 0.002 mg/mL. The minimal inhibitory concentration (MIC) stood at 0.001 mg/mL in experiment [3] (strain Z33, non-mucoid, CF); 0.002 mg/mL in experiment [3] (strain Z34, non-mucoid, CF); 0.001 mg/mL in experiment [3] (strain Z35, non-mucoid, CF); 0.002 mg/mL in experiment [3] (strain Z152, mucoid, CF); 0.002 mg/mL in experiment [3] (strain Z154, mucoid, CF). In experiment [4] (ASM model, with NAC 8000 mg/L), the “concentration of colistin which allowed to observe a synergism” value is 32 ×MIC. Moreover, in experiment [4] (higher colistin concentrations (>64 mg/L), data not shown), the “antibiofilm activity of colistin in absence of NAC” value is “eradication of the biofilm cultures”. Also, the colistin antibiofilm activity result in experiment [4] (lower colistin concentrations, preliminary experiments, data not shown) is on record as “did not show either colistin antibiofilm activity”.
